Results as given in ChEMBL document CHEMBL4507303, “Data for DCP probe TP-004” (2021).

Columns and labels:
[1] = biological target: Calcium/calmodulin-dependent protein kinase type II subunit alpha (Homo sapiens) (UniProt Q9UQM7); settings: Compound concentration 1000.0 nM
[2] = biological target: Serine/threonine-protein kinase/endoribonuclease IRE1 (Homo sapiens) (UniProt O75460); settings: Compound concentration 1000.0 nM
[3] = biological target: Serine/threonine-protein kinase N1 (Homo sapiens) (UniProt Q16512); settings: Compound concentration 1000.0 nM
[4] = biological target: Serine/threonine-protein kinase ICK (Homo sapiens) (UniProt Q9UPZ9); settings: Compound concentration 1000.0 nM
[5] = biological target: Myosin-IIIb (Homo sapiens) (UniProt Q8WXR4); settings: Compound concentration 1000.0 nM
[6] = biological target: Ribosomal protein S6 kinase alpha-4 (Homo sapiens) (UniProt O75676); settings: Compound concentration 1000.0 nM
[7] = biological target: Peripheral plasma membrane protein CASK (Homo sapiens) (UniProt O14936); settings: Compound concentration 1000.0 nM
[8] = biological target: Receptor tyrosine-protein kinase erbB-3 (Homo sapiens) (UniProt P21860); settings: Compound concentration 1000.0 nM
[9] = biological target: RAF proto-oncogene serine/threonine-protein kinase (Homo sapiens) (UniProt P04049); settings: Compound concentration 1000.0 nM
[10] = biological target: BMP-2-inducible protein kinase (Homo sapiens) (UniProt Q9NSY1); settings: Compound concentration 1000.0 nM
[11] = biological target: Tyrosine-protein kinase HCK (Homo sapiens) (UniProt P08631); settings: Compound concentration 1000.0 nM
[12] = biological target: Microtubule-associated serine/threonine-protein kinase 1 (Homo sapiens) (UniProt Q9Y2H9); settings: Compound concentration 1000.0 nM
[13] = biological target: Mitogen-activated protein kinase kinase kinase 7 (Homo sapiens) (UniProt O43318); settings: Compound concentration 1000.0 nM
[14] = biological target: 5-hydroxytryptamine receptor 2C (Homo sapiens) (UniProt P28335); settings: Compound concentration 10.0 uM
[15] = biological target: Serine/threonine-protein kinase 17A (Homo sapiens) (UniProt Q9UEE5); settings: Compound concentration 1000.0 nM
[16] = biological target: Mitogen-activated protein kinase 1 (Homo sapiens) (UniProt P28482); settings: Compound concentration 1000.0 nM
[17] = biological target: Mitogen-activated protein kinase 10 (Homo sapiens) (UniProt P53779); settings: Compound concentration 1000.0 nM
[18] = biological target: Mitogen-activated protein kinase 13 (Homo sapiens) (UniProt O15264); settings: Compound concentration 1000.0 nM
[19] = biological target: 5-hydroxytryptamine receptor 5A (Homo sapiens) (UniProt P47898); settings: Compound concentration 10.0 uM
[20] = biological target: Dual specificity tyrosine-phosphorylation-regulated kinase 1B (Homo sapiens) (UniProt Q9Y463); settings: Compound concentration 1000.0 nM
[21] = system: Epidermal growth factor receptor (Homo sapiens), P00533 [T790M]; settings: Compound concentration 1000.0 nM
[22] = biological target: Serine/threonine-protein kinase WNK1 (Homo sapiens) (UniProt Q9H4A3); settings: Compound concentration 1000.0 nM
[23] = system: Tyrosine-protein kinase ABL1 (Homo sapiens), P00519 [F317L]; settings: Compound concentration 1000.0 nM
[24] = biological target: Cyclin-dependent kinase 2 (Homo sapiens) (UniProt P24941); settings: Compound concentration 1000.0 nM
[25] = system: Tyrosine-protein kinase ABL1 (Homo sapiens), P00519 [H396P]; settings: Compound concentration 1000.0 nM
[26] = biological target: Mitogen-activated protein kinase kinase kinase 3 (Homo sapiens) (UniProt Q99759); settings: Compound concentration 1000.0 nM
[27] = biological target: Serine/threonine-protein kinase Nek7 (Homo sapiens) (UniProt Q8TDX7); settings: Compound concentration 1000.0 nM
[28] = biological target: Calcium/calmodulin-dependent protein kinase type 1G (Homo sapiens) (UniProt Q96NX5); settings: Compound concentration 1000.0 nM
[29] = biological target: Serine/threonine-protein kinase PAK 5 (Homo sapiens) (UniProt Q9P286); settings: Compound concentration 1000.0 nM
[30] = biological target: Mitogen-activated protein kinase 7 (Homo sapiens) (UniProt Q13164); settings: Compound concentration 1000.0 nM
[31] = system: Tyrosine-protein kinase ABL1 (Homo sapiens), P00519 [Q252H]; settings: Compound concentration 1000.0 nM
[32] = biological target: Ribosomal protein S6 kinase alpha-1 (Homo sapiens) (UniProt Q15418); settings: Compound concentration 1000.0 nM
[33] = biological target: Aurora kinase A (Homo sapiens) (UniProt O14965); settings: Compound concentration 1000.0 nM
[34] = biological target: Uncharacterized serine/threonine-protein kinase SBK3 (Homo sapiens) (UniProt P0C264); settings: Compound concentration 1000.0 nM
[35] = biological target: Histamine H4 receptor (Homo sapiens) (UniProt Q9H3N8); settings: Compound concentration 10.0 uM
[36] = biological target: Serine/threonine-protein kinase Sgk3 (Homo sapiens) (UniProt Q96BR1); settings: Compound concentration 1000.0 nM
[37] = biological target: Tyrosine-protein kinase ABL2 (Homo sapiens) (UniProt P42684); settings: Compound concentration 1000.0 nM
[38] = biological target: Atypical kinase COQ8B, mitochondrial (Homo sapiens) (UniProt Q96D53); settings: Compound concentration 1000.0 nM
[39] = biological target: Tyrosine-protein kinase ABL1 (Homo sapiens) (UniProt P00519); settings: Compound concentration 1000.0 nM
[40] = biological target: Mitogen-activated protein kinase kinase kinase kinase 5 (Homo sapiens) (UniProt Q9Y4K4); settings: Compound concentration 1000.0 nM
[41] = biological target: Serine/threonine-protein kinase N2 (Homo sapiens) (UniProt Q16513); settings: Compound concentration 1000.0 nM
[42] = biological target: Calcium/calmodulin-dependent protein kinase type IV (Homo sapiens) (UniProt Q16566); settings: Compound concentration 1000.0 nM
[43] = biological target: cAMP-dependent protein kinase catalytic subunit alpha (Homo sapiens) (UniProt P17612); settings: Compound concentration 1000.0 nM
[44] = biological target: Serine/threonine-protein kinase mTOR (Homo sapiens) (UniProt P42345); settings: Compound concentration 1000.0 nM
[45] = biological target: Rho-associated protein kinase 1 (Homo sapiens) (UniProt Q13464); settings: Compound concentration 1000.0 nM

RAF proto-oncogene serine/threonine-protein kinase (Homo sapiens), sequence (P04049 whole entry): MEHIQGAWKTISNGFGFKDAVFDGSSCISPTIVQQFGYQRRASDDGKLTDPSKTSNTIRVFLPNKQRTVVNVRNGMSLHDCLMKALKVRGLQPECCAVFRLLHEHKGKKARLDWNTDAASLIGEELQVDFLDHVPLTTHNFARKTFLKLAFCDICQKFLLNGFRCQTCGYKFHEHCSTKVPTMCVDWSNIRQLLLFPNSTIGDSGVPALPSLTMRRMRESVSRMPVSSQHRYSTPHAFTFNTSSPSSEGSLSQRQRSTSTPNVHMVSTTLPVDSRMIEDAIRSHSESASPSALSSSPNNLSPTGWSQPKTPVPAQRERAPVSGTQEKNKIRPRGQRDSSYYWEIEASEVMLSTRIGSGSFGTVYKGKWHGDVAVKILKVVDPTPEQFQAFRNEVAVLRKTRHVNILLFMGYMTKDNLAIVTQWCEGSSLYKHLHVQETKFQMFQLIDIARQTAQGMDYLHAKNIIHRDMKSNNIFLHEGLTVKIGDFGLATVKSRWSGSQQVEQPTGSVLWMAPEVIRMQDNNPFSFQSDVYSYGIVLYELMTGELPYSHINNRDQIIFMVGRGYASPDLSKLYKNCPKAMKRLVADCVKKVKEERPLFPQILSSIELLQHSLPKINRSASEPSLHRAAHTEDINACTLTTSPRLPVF
5-hydroxytryptamine receptor 5A (Homo sapiens), sequence (P47898 whole entry): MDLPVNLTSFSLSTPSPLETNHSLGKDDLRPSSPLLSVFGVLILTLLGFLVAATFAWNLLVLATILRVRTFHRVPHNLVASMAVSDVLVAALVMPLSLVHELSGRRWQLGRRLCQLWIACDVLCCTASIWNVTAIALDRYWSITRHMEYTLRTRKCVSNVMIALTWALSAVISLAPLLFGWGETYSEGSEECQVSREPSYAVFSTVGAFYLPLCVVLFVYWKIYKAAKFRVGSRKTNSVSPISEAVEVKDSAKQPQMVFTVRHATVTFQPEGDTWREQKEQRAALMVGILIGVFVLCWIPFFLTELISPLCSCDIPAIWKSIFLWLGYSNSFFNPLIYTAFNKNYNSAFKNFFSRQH
Mitogen-activated protein kinase kinase kinase 3 (Homo sapiens), sequence (Q99759 whole entry): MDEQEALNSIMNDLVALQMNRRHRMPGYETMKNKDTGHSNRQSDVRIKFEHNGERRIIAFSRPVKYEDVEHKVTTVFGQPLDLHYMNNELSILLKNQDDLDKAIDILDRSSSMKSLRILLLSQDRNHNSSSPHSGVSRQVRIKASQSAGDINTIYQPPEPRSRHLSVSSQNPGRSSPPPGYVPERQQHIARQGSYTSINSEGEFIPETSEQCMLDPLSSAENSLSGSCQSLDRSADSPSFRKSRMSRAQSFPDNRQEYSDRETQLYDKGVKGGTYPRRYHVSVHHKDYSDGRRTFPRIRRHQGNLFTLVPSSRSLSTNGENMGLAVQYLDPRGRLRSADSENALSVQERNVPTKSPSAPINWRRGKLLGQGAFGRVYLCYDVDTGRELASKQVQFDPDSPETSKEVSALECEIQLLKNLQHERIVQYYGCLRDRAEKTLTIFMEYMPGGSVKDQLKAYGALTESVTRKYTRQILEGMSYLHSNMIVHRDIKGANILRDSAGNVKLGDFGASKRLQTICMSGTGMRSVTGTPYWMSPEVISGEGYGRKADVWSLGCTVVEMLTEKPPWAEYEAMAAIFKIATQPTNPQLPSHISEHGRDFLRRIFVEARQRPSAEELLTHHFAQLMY
BMP-2-inducible protein kinase (Homo sapiens), sequence (Q9NSY1 whole entry, looked up): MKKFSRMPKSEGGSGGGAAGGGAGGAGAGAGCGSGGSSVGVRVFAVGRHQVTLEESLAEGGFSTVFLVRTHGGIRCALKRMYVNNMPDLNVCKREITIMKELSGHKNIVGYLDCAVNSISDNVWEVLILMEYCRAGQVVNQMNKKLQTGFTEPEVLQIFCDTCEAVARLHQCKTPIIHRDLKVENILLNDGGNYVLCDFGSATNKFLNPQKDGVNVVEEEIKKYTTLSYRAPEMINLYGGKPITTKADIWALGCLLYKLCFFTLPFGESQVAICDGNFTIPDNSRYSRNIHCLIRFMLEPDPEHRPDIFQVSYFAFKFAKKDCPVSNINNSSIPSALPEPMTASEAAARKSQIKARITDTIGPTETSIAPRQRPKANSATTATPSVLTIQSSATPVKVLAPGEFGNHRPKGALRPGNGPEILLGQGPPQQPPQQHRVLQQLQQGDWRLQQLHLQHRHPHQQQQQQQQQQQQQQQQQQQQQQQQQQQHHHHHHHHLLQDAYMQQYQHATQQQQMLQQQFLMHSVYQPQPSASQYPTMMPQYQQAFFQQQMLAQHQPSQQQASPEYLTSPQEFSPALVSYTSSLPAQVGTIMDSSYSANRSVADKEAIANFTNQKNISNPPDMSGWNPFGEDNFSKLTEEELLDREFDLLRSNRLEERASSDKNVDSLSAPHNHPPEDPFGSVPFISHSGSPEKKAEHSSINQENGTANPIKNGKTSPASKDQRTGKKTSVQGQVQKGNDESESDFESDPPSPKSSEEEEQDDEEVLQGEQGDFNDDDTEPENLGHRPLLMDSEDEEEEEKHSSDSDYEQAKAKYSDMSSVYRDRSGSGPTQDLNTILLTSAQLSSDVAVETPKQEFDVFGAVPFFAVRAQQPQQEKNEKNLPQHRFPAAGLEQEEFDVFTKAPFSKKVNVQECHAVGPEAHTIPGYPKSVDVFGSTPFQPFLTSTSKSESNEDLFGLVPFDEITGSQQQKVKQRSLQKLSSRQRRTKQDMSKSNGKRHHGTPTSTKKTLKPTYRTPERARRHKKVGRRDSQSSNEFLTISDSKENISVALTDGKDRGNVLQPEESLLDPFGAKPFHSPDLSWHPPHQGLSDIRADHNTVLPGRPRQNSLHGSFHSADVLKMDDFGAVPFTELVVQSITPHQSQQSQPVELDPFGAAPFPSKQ
Serine/threonine-protein kinase Nek7 (Homo sapiens), sequence (Q8TDX7 whole entry, looked up): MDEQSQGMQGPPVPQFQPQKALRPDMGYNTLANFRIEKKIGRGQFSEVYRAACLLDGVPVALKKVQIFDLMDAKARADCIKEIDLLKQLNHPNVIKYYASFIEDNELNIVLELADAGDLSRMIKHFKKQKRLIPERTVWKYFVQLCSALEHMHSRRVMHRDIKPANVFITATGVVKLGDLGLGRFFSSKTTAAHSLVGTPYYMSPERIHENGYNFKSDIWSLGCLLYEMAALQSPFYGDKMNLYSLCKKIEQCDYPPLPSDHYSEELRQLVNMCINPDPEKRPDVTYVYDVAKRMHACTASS
Calcium/calmodulin-dependent protein kinase type IV (Homo sapiens), sequence (Q16566 whole entry): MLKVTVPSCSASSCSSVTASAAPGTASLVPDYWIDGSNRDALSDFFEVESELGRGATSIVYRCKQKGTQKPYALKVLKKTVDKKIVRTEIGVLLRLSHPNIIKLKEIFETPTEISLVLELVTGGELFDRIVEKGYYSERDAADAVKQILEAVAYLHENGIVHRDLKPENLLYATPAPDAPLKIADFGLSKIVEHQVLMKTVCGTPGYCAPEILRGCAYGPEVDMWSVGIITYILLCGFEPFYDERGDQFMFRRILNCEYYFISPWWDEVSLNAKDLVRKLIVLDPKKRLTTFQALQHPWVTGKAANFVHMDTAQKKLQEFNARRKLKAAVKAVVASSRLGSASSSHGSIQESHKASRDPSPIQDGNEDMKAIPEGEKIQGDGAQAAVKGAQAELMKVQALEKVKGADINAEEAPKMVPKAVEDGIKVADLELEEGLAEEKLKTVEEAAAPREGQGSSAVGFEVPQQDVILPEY
Peripheral plasma membrane protein CASK (Homo sapiens), sequence (O14936 whole entry): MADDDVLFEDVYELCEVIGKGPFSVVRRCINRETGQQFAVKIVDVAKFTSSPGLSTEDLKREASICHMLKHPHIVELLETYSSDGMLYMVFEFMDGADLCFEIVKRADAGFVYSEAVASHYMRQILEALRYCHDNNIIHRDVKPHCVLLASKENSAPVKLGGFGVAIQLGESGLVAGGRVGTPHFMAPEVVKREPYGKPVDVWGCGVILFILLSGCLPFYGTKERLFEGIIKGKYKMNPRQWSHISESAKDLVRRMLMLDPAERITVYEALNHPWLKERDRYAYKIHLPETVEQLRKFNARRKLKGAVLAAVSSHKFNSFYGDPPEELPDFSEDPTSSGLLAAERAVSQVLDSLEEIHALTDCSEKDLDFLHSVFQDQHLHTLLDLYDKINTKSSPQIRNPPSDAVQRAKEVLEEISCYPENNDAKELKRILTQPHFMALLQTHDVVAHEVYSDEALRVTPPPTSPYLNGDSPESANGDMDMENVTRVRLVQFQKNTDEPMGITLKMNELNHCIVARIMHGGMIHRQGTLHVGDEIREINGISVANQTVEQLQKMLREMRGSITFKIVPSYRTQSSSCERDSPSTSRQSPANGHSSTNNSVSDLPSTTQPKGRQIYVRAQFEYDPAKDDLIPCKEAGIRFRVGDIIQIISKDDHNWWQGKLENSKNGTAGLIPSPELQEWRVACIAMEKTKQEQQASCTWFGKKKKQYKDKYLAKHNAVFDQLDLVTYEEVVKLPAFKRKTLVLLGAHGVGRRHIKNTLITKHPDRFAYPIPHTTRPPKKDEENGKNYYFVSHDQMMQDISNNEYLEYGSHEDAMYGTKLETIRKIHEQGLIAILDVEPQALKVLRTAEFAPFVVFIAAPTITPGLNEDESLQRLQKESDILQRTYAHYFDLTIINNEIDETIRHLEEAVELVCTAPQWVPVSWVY
Tyrosine-protein kinase HCK (Homo sapiens), sequence (P08631 2-526 limits assumed): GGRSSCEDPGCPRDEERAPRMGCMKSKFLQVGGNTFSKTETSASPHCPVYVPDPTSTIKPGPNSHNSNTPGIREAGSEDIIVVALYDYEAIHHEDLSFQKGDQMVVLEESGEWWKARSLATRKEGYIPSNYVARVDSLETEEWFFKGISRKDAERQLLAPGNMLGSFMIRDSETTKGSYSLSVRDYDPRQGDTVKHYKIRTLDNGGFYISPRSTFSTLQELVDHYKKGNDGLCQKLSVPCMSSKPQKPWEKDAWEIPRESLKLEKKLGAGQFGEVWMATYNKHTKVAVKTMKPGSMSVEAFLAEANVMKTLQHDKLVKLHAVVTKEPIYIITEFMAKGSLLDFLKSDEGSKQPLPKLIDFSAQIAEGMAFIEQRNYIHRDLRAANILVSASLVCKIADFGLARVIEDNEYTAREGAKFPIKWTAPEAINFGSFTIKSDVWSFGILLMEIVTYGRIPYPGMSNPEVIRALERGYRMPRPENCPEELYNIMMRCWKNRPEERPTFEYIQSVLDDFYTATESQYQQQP

Cc1nc(N2CC[C@@H](O)C2)ncc1-c1cc(C(F)(F)F)cc2[nH]ncc12 [TP-004]
inactive: residual activity [1] 100% | residual activity [2] 86% | residual activity [3] 100% | residual activity [4] 100% | residual activity [5] 93% | residual activity [6] 68% | residual activity [7] 95% | residual activity [8] 100% | residual activity [9] 100% | residual activity [10] 100% | residual activity [11] 100% | residual activity [12] 100% | residual activity [13] 89% | inhibition [14] -0.722% | residual activity [15] 100% | residual activity [16] 100% | residual activity [17] 72% | residual activity [18] 100% | inhibition [19] -2.1% | residual activity [20] 96% | residual activity [21] 93% | residual activity [22] 71% | residual activity [23] 58% | residual activity [24] 94% | residual activity [25] 61% | residual activity [26] 82% | residual activity [27] 97% | residual activity [28] 100% | residual activity [29] 99% | residual activity [30] 83% | residual activity [31] 91% | residual activity [32] 91% | residual activity [33] 87% | residual activity [34] 100% | inhibition [35] 12% | residual activity [36] 70% | residual activity [37] 60% | residual activity [38] 100% | residual activity [39] 61% | residual activity [40] 75% | residual activity [41] 72% | residual activity [42] 100% | residual activity [43] 83% | residual activity [44] 100% | residual activity [45] 91%
